Source: US5753709A, “N-acyl-2 aryl cyclopropylmethylamine derivatives as melatonergics” (Bristol-Myers Squibb Company, priority 1996, dated 1998)

What follows are compounds tested against T1, human melatonin receptor (human ML1A) (Homo sapiens, UniProt P48039) (assay: Melatonergic binding: displacement of 2-[125I]-iodomelatonin at the human melatonin receptor (human ML1A in COS-1 membranes)). Settings: Table 4; displacement of 2[125I]-Iodomelatonin (100 pM), 37° C., 1 hour.
T1 construct: expressed in transfected cells; host or cells: COS-1 cells (transient, pcDNAI, DEAE-dextran); membrane homogenates
T1 sequence (P48039 whole entry): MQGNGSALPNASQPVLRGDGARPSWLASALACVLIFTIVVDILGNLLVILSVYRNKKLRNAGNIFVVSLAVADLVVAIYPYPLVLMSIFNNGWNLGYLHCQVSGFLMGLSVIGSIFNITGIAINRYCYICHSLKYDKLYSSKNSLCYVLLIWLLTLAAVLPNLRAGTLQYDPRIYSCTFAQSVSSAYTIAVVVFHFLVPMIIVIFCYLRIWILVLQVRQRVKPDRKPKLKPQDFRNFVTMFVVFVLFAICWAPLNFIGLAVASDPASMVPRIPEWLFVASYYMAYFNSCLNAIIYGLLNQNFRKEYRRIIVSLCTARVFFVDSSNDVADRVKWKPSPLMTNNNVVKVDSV
Procedure: The melatonergic binding of the compounds of Formula I was determined by a modification of the method of Reppert, S. M. et al. (Neuron, Volume 13, pages 1177-1185, 1994). […] The reagents, membranes, and other parameters used in the assay are described below:
(a) 50 mM Tris buffer containing 12.5 mM MgCl2, and 2 mM EDTA (pH 7.4 at 37° C.).
(b) Wash buffer: 20 mM Tris base containing 2 mM MgCl2 (pH 7.4 at room temperature).
(c) 6-Chloromelatonin (10^-5 M final concentration).
(d) 2-[^125 I]-Iodomelatonin (100 pM final concentration). (Source: NEN) Membrane preparation: The cDNA (human ML1A) in pcDNAI was introduced into COS-1 cells by the DEAE-dextran method. Three days later, after media removal, the plates were washed with buffered saline; the cells removed using Hank's balanced salt solution and pelleted. The supernant was discarded and the pellets frozen. For membrane homogenates, the pellets were thawed and resuspended in TME buffer, Tris base, MgCl2, EDTA (pH 7.4 at 37° C.), and supplemented with aprotinin, leupeptin, and phenylmethylsulfonyl fluoride. The cells were homogenized and centrifuged; the resulting pellet resuspended in TME and frozen. At assay, the small aliquot was thawed on ice and resuspended in TME buffer. Incubation: 37° C. for 1 hour. Reaction is terminated by filtration.

IC50 [nM] | Structure (SMILES)
40 to 250 | COc1ccc(F)c([C@@H]2C[C@H]2CNC(=O)C(C)C)c1 (relative stereo) [Example 1, (trans)-N-[[2-(2-Fluoro-5-methoxyphenyl)cyclopropyl]methyl]-2-methylpropanamide]
< 5 | CCCC(=O)NC[C@@H]1C[C@H]1c1cccc(OC)c1 (relative stereo) [Example 2, (trans)-N-[[2-(3-Methoxyphenyl)cyclopropyl]methyl] butanamide]
< 5 | CCCC(=O)NC[C@@H]1C[C@H]1c1cc(OC)ccc1I (relative stereo) [Example 4, (trans)-N-[[2-(2-Iodo-5-methoxyphenyl)cyclopropyl]methyl]butanamide]
40 to 250 | CCCC(=O)N(Cc1ccccc1)C[C@@H]1C[C@H]1c1cccc(OC)c1 (relative stereo) [Example 6, (trans)-N-[[2-(3-Methoxyphenyl)cyclopropyl]methyl]-N-(phenylmethyl) butanamide]
< 5 | CCC(=O)NC[C@@H]1C[C@H]1c1cccc(OC)c1 (relative stereo) [Example 18, (trans)-N-[[2-(3-Methoxyphenyl)cyclopropyl]methyl] propanamide]
5 to 40 | COc1cccc([C@@H]2C[C@H]2CNC(C)=O)c1 (relative stereo) [Example 19, (trans)-N-[[2-(3-Methoxyphenyl)cyclopropyl]methyl] acetamide]
5 to 40 | COCC(=O)NC[C@@H]1C[C@H]1c1cccc(OC)c1 (relative stereo) [Example 20, (trans)-N-[[2-(3-Methoxyphenyl)cyclopropyl]methyl]-2-methoxyacetamide]
5 to 40 | COc1cccc([C@@H]2C[C@H]2CNC(=O)C(C)C)c1 (relative stereo) [Example 21]
40 to 250 | CCCCC(=O)NC[C@@H]1C[C@H]1c1cccc(OC)c1 (relative stereo) [Example 25]

Same assay, conditions: Table 5; displacement of 2[125I]-Iodomelatonin (100 pM), 37° C., 1 hour

IC50 [nM] | Structure (SMILES)
250 to 600 | CCCC(=O)NC[C@@H]1C[C@H]1c1cccc(O)c1 (relative stereo) [Example 7a, (trans)-N-[[2-(3-Hydroxyphenyl)cyclopropyl]methyl] butanamide]
5 to 40 | C=CCOc1cccc([C@@H]2C[C@H]2CNC(=O)CCC)c1 (relative stereo) [Example 7b, (trans)-N-[[2-[3-(2-Propenyloxy)phenyl]cyclopropyl]methyl] butanamide]
40 to 250 | CCCC(=O)NC[C@@H]1C[C@H]1c1cccc(OCCO)c1 (relative stereo) [Example 15]
40 to 250 | CCCC(=O)NC[C@@H]1C[C@H]1c1cccc(OCCCCCCc2ccccc2)c1 (relative stereo) [Example 45]
5 to 40 | CCCC(=O)NC[C@@H]1C[C@H]1c1cccc(OCCCCCCCc2ccccc2)c1 (relative stereo) [Example 46, (trans)-N-[[2-[3-[(7-Phenylheptyl)oxy]phenyl]cyclopropyl]methyl] butanamide]
250 to 600 | CCCC(=O)NC[C@@H]1C[C@H]1c1cccc(OCCCC#Cc2ccccc2)c1 (relative stereo) [Example 47]
5 to 40 | CCCC(=O)NC[C@@H]1C[C@H]1c1cccc(OCC)c1 (relative stereo) [Example 48]
40 to 250 | CCCCCCCOc1cccc([C@@H]2C[C@H]2CNC(=O)CCC)c1 (relative stereo) [Example 53, (trans)-N-[[2-[3-(Heptyloxy)phenyl]cyclopropyl]methyl] butanamide]
5 to 40 | CCCCCCCCOc1cccc([C@@H]2C[C@H]2CNC(=O)CCC)c1 (relative stereo) [Example 54, (trans)-N-[[2-[(3-Octyloxy)phenyl]cyclopropyl]methyl] butanamide]
40 to 250 | CCCCCCCCCOc1cccc([C@@H]2C[C@H]2CNC(=O)CCC)c1 (relative stereo) [Example 55, (trans)-N-[[2-[3-(Nonyloxy)phenyl]cyclopropyl]methyl] butanamide]
5 to 40 | CCCCCCCCCCOc1cccc([C@@H]2C[C@H]2CNC(=O)CCC)c1 (relative stereo) [Example 56, (trans)-N-[[2-[(3-Decyloxy)phenyl]cyclopropyl]methyl] butanamide]
5 to 40 | CCCCCCCCCCCOc1cccc([C@@H]2C[C@H]2CNC(=O)CCC)c1 (relative stereo) [Example 57, (trans)-N-[[2-[(3-Undecyloxy)phenyl]cyclopropyl]methyl] butanamide]
5 to 40 | CCCCCCCCCCCCOc1cccc([C@@H]2C[C@H]2CNC(=O)CCC)c1 (relative stereo) [Example 58, (trans)-N-[[2-[(3-Dodecyloxy)phenyl]cyclopropyl]methyl] butanamide]
250 to 600 | CCCCCCCCCCCCCCCCOc1cccc([C@@H]2C[C@H]2CNC(=O)CCC)c1 (relative stereo) [Example 59]
5 to 40 | CCCC(=O)NC[C@@H]1C[C@H]1c1cccc(OCCc2ccccc2)c1 (relative stereo) [Example 60, (trans)-N-[[2-[3-[(2-Phenylethyl)oxy]phenyl]cyclopropyl]methyl] butanamide]
250 to 600 | CCCC(=O)NC[C@@H]1C[C@H]1c1cccc(OCC(C)C)c1 (relative stereo) [Example 61]
5 to 40 | CCCC(=O)NC[C@@H]1C[C@H]1c1cccc(OCCCc2cccc(OC)c2)c1 (relative stereo) [Example 62, (trans)-N-[[2-[3-[3-(3-Methoxyphenyl)propoxy]phenyl]cyclopropyl]methyl] butanamide]
40 to 250 | CCCC(=O)NC[C@@H]1C[C@H]1c1cccc(OCCCc2ccncc2)c1 (relative stereo) [Example 63]

IC50 [nM] | Structure (SMILES)
40 to 250 | CCCC(=O)NC[C@@H]1C[C@H]1c1cc(OC(F)(F)F)ccc1Br (relative stereo) [Example 72]
5 to 40 | CCCC(=O)NC[C@@H]1C[C@H]1c1cccc(Br)c1 (relative stereo) [Example 73, (trans)-N-[[2-(3-Bromophenyl)cycloprop-1-yl]methyl] butanamide]
5 to 40 | CCCC(=O)NC[C@@H]1C[C@H]1c1cccc(C)c1 (relative stereo) [Example 75, (trans)-N-[[2-(3-Methylphenyl)cycloprop-1-yl]methyl] butanamide]
40 to 250 | CC(=O)NC[C@@H]1C[C@H]1c1cccc(C)c1 (relative stereo) [Example 78, (trans)-N-[[2-(3-Methylphenyl)cycloprop-1-yl]methyl] acetamide]
5 to 40 | CCCC(=O)NC[C@@H]1C[C@H]1c1cccc(Cl)c1 (relative stereo) [Example 80, (trans)-N-[[2-(3-Chlorophenyl)cycloprop-1-yl]methyl] butanamide]
40 to 250 | CCCC(=O)NC[C@@H]1C[C@H]1c1cc(F)ccc1F (relative stereo) [Example 87, (trans)-N-[[2-(2,5-Difluorophenyl)cycloprop-1-yl]methyl] butanamide]
40 to 250 | CCCC(=O)NC[C@@H]1C[C@H]1c1cccc(OCCCF)c1 (relative stereo) [Example 94]
5 to 40 | CCCC(=O)NC[C@@H]1C[C@H]1c1cccc(OCCCc2ccccc2)c1 (relative stereo) [Example 95, (trans)-N-[[2-[3[(3-Phenylprop-1-yl)oxy]phenyl]cycloprop-1-yl]methyl] butanamide]
5 to 40 | CCCC(=O)NC[C@@H]1C[C@H]1c1cccc(OCCCOc2ccccc2)c1 (relative stereo) [Example 96, (trans)-N-[[2-[3[(3-Phenoxyprop-1-yl)oxy]phenyl]cycloprop-1-yl]methyl] butanamide]
5 to 40 | CCCC(=O)NC[C@@H]1C[C@H]1c1cccc(OCCCn2cccc2)c1 (relative stereo) [Example 98]
5 to 40 | CCCC(=O)NC[C@@H]1C[C@H]1c1cccc(OCC=C(C)CCC=C(C)C)c1 (relative stereo) [Example 99, (trans)-N-[[2-[3[(3-Dimethylocta-2,6-dien-1-yl)oxy]phenyl]cycloprop-1-yl]methyl] butanamide]
5 to 40 | CCCC(=O)NC[C@@H]1C[C@H]1c1cccc(OCCCCC(C)C)c1 (relative stereo) [Example 100, (trans)-N-[[2-[3-(5-Methylhexyloxy)phenyl]cycloprop-1-yl]methyl] butanamide]
< 5 | CCCC(=O)NC[C@@H]1C[C@H]1c1cccc(OCC=C(C)CCC=C(C)CCC=C(C)C)c1 (relative stereo) [Example 103, (trans)-N-[[2-[3-[(3-,7,11-Trimethyldodeca-2,6,10-trien-1-yl)oxy]phenyl]cycloprop-1-yl]methyl] butanamide]
5 to 40 | C=CCCCOc1cccc([C@@H]2C[C@H]2CNC(=O)CCC)c1 (relative stereo) [Example 105]
5 to 40 | CCCC(=O)NC[C@@H]1C[C@H]1c1cccc(OCCC=C(C)C)c1 (relative stereo) [Example 106, (trans)-N-[[2-[3-(4-Methyl-3-penten-1-yloxy)phenyl]cycloprop-1-yl]methyl] butanamide]
40 to 250 | CCCC(=O)NC[C@@H]1C[C@H]1c1cccc(OCCCCC(C)(C)C#N)c1 (relative stereo) [Example 107]
40 to 250 | CCCC(=O)NC[C@@H]1C[C@H]1c1cccc(OCCCC(=O)OC)c1 (relative stereo) [Example 108]
